Values of other authors as cited in patent US7871609B2, “Supplements for pain management” (priority 2007, dated 2011).
Where a name gives a salt, the structure may show the parent alone. Read-outs that look alike come from different tables or passages of the source. Blank lines part the entries; values can stand above or below the compound they belong to.

Columns and labels:
[1] = test system: osteoarthritis (OA) of the knee
[2] = test system: cultured cerebellar granule neurons (CGNs); details: exposure to amprolium
[3] = test system: chronically stressed rats
[4] = test system: homocysteine-induced atherosclerosis; details: day 14, homocysteine thiolactone intake, supplemented versus deficient rats
[5] = test system: NF-kappaB signalling in human articular chondrocytes
[6] = test system: cells in tissue culture that express PMP22 mutants; details: cells expressing PMP22 mutants
[7] = test system: Trembler-J mouse model
[8] = test system: forced swimming test; details: chronic treatment 14 days, 1.25, 2.5, 5 and 10 mg/kg, p.o.
[9] = test system: bilateral olfactory bulbectomy (OB) model
[10] = test system: spasmodic dysmenorrhea; details: 556 girls aged 12-21 yr, oral daily dose of 100 mg for 90 days
[11] = test system: tumors or masses

SMILES: O=C(O)Cc1ccccc1Nc1c(Cl)cccc1Cl [diclofenac]
mean Lequesne's Algofunctional Index (LFI) at end ([1]; after the 6-week observation period): 9.4
mean Lequesne's Algofunctional Index (LFI) at start ([1]; before the 6-week observation period): 12.5
tolerability judgment ([1]; majority of patients): very good or good
global judgment of efficacy by physician, at least good ratings ([1]; share of patients, 6 weeks): 37.2%

SMILES: CCCc1ncc(C[n+]2ccccc2C)c(N)n1 [amprolium]
effect on cerebellar granule neurons [2]: caused apoptosis and the generation of reactive oxygen species

SMILES: CN(C)CCCN1c2ccccc2CCc2ccccc21 [imipramine]
hippocampal neurogenesis ([3]; 10 mg/kg, i.p.): increased hippocampal neurogenesis

SMILES: Cc1ncc(CO)c(CO)c1O [vitamin B-6, pyridoxine]
aortic lesions [4]: not in vitamin B6-supplemented rats

IL-1beta-induced down-regulation of collagen type II and beta1-integrin receptor expression [5]: reversed
IL-1beta-induced stimulation of protein kinase B Akt [5]: inhibited
SMILES: COc1cc(/C=C/C(=O)CC(=O)/C=C/c2ccc(O)c(OC)c2)ccc1O [Curcumin, diferuloylmethane]
IL-1beta-induced NF-kappaB activation ([5]; via inhibition of IkappaBalpha phosphorylation and degradation, p65 phosphorylation and nuclear translocation): suppressed
expression of NF-kappaB targets COX-2 and MMP-9 ([5]; western blotting): down-regulation
apoptosis [6]: reduced apoptosis
motor performance ([7]; mouse, in vivo): improved motor performance
myelinated axons in sciatic nerves ([7]; mouse, in vivo): increased number and size
neuropathy phenotype ([7]; oral administration, dose-dependent): partially mitigates the severe neuropathy phenotype
percentage of apoptotic Schwann cells ([7]; sciatic nerves): significantly decreases
hippocampal neurogenesis ([3]; 10 and 20 mg/kg, p.o., 20 days chronic stress): increased hippocampal neurogenesis
5-HT(1A) mRNA and BDNF protein levels in the hippocampal subfields ([3]; chronic stress): significantly prevented the stress-induced decrease
immobility time [8]: reduced the immobility time
OB-induced behavioral abnormalities (hyperactivity in open field, deficits in step-down passive avoidance) ([9]; chronic administration p.o.): reversed
OB-induced changes of 5-HT, NA, 5-HIAA and DOPAC in the hippocampus ([9]; rat, in vivo): completely reversed
OB-induced decrease in 5-HT, NA and DA levels in the frontal cortex ([9]; rat, in vivo): also reversed

SMILES: Cc1ncc(C[n+]2csc(CCO)c2C)c(N)n1 [Vitamin B1, thiamine]
completely cured [10]: 87%
no effect whatsoever [10]: 5%
relieved (pain almost nil to reduced) [10]: 8%
cases of Baker's cyst cured without recurrence ([11]; thiamin alone injected): 13 out of 15
cases of submandibular gland cyst cured without recurrence ([11]; thiamin alone injected): Two

SMILES: Cc1ncc(C[n+]2csc(CCO)c2C)c(N)n1 [thiamin HCl]
osteosarcoma circumference before treatment ([11]; one case, pathology-confirmed): 30 cm
osteosarcoma circumference after treatment ([11]; subcutaneous perfusion of 300 once only, within 2 days): 20 cm
equivalent reduction in osteosarcoma volume ([11]; within 2 days): 50-75%
